Assay results taken from PubChem BioAssay AID1919001 (Molecular Pharmacology Branch, DTP, NCI, 2023).

System: 699152-130-R-J1-PDC complex spheroid growth
Assay: Anticancer human tumor 699152-130-R-J1-PDC patient-derived pancreatic carcinoma cell line growth inhibition [AhR]
Conditions: for IC50: curve of first compound; for viability, T/C: stronger effect = lower value
Outline: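 Spheroids combined tumor cells with HUVEC endothelial cells and human MSCs as stroma. AhR antagonists were paired with standard or investigational drugs, each dosed in half-log steps down from near clinical Cmax, or from 10 microM where Cmax was unknown.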

[1] = second compound 0.1 µM, first compound 0.0316 µM
[2] = second compound 0.1 µM, first compound 0.1 µM
[3] = second compound 0.1 µM, first compound 0.316 µM
[4] = second compound 0.1 µM, first compound 1 µM
[5] = second compound 0.1 µM, first compound 3.16 µM
[6] = second compound 0.1 µM, first compound 10 µM
[7] = second compound 0.316 µM, first compound 0.0316 µM
[8] = second compound 0.316 µM, first compound 0.1 µM
[9] = second compound 0.316 µM, first compound 0.316 µM
[10] = second compound 0.316 µM, first compound 1 µM
[11] = second compound 0.316 µM, first compound 3.16 µM
[12] = second compound 0.316 µM, first compound 10 µM
[13] = second compound 1 µM, first compound 0.0316 µM
[14] = second compound 1 µM, first compound 0.1 µM
[15] = second compound 1 µM, first compound 0.316 µM
[16] = second compound 1 µM, first compound 1 µM
[17] = second compound 1 µM, first compound 3.16 µM
[18] = second compound 1 µM, first compound 10 µM
[19] = second compound 3.16 µM, first compound 0.0316 µM
[20] = second compound 3.16 µM, first compound 0.1 µM
[21] = second compound 3.16 µM, first compound 0.316 µM
[22] = second compound 3.16 µM, first compound 1 µM
[23] = second compound 3.16 µM, first compound 3.16 µM
[24] = second compound 3.16 µM, first compound 10 µM
[25] = second compound 10 µM, first compound 0.0316 µM
[26] = second compound 10 µM, first compound 0.1 µM
[27] = second compound 10 µM, first compound 0.316 µM
[28] = second compound 10 µM, first compound 1 µM
[29] = second compound 10 µM, first compound 3.16 µM
[30] = second compound 10 µM, first compound 10 µM
[31] = second compound 0.1 µM, first compound 0.00316 µM
[32] = second compound 0.1 µM, first compound 0.01 µM
[33] = second compound 0.316 µM, first compound 0.00316 µM
[34] = second compound 0.316 µM, first compound 0.01 µM
[35] = second compound 1 µM, first compound 0.00316 µM
[36] = second compound 1 µM, first compound 0.01 µM
[37] = second compound 3.16 µM, first compound 0.00316 µM
[38] = second compound 3.16 µM, first compound 0.01 µM
[39] = second compound 10 µM, first compound 0.00316 µM
[40] = second compound 10 µM, first compound 0.01 µM
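Also: compound exposure lasted 7 days after spheroids had grown for 3 days.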

Row | Structure (SMILES) | IC50 (second compound 0.1 µM) [nM] | IC50 (second compound 0.316 µM) [nM] | IC50 (second compound 1 µM) [nM] | IC50 (second compound 3.16 µM) [nM] | IC50 (second compound 10 µM) [nM] | viability, T/C [1] [%] | viability, T/C [2] [%] | viability, T/C [3] [%] | viability, T/C [4] [%] | viability, T/C [7] [%] | viability, T/C [8] [%] | viability, T/C [9] [%] | viability, T/C [10] [%] | viability, T/C [13] [%] | viability, T/C [14] [%] | viability, T/C [15] [%] | viability, T/C [19] [%] | viability, T/C [20] [%] | viability, T/C [25] [%] | viability, T/C [26] [%] | further results
1 | CC(C)c1c(-c2ccccc2)nc2c(C#N)c[nH]n2c1=O + CC(CO)NC(=O)c1cc(-c2ccc(Cl)cc2)nn(-c2cnn(C)c2)c1=O | > 10000 | > 10000 | > 10000 | > 10000 | > 10000 | 97 | 97.8 | 109 | 100 | 93.6 | 98.7 | 86.4 | 87.9 | 99.7 | 104 | 105 | 92.4 | 90.3 | 95.6 | 100 | viability, T/C [5]: 94.9%; viability, T/C [6]: 95.5%; viability, T/C [11]: 93.3%; viability, T/C [12]: 86.6%; viability, T/C [16]: 97.3%; viability, T/C [17]: 85.5%; viability, T/C [18]: 86.8%; viability, T/C [21]: 94.8%; viability, T/C [22]: 95.4%; viability, T/C [23]: 83.5%; viability, T/C [24]: 79.5%; viability, T/C [27]: 82.1%; viability, T/C [28]: 82.7%; viability, T/C [29]: 85%; viability, T/C [30]: 79.8%
2 | CC[C@@]1(O)C(=O)OCc2c1cc1n(c2=O)Cc2cc3c(CN(C)C)c(O)ccc3nc2-1 + Cc1ccccc1N=Nc1ccc(NC(=O)c2ccnn2C)c(C)c1 | > 100 | 75 | > 100 | > 100 | > 100 | 68.8 | 55.1 |  |  | 63.5 | 45.5 |  |  | 60.5 | 50.6 |  | 60.9 | 54.3 | 70 | 50.8 | viability, T/C (second compound 0.1 µM, first compound 0.000316 µM): 95.9%; viability, T/C (second compound 0.1 µM, first compound 0.001 µM): 99%; viability, T/C [31]: 101%; viability, T/C [32]: 82.7%; viability, T/C (second compound 0.316 µM, first compound 0.000316 µM): 97.9%; viability, T/C (second compound 0.316 µM, first compound 0.001 µM): 94%; viability, T/C [33]: 99.6%; viability, T/C [34]: 80.1%; viability, T/C (second compound 1 µM, first compound 0.000316 µM): 94.2%; viability, T/C (second compound 1 µM, first compound 0.001 µM): 98.1%; viability, T/C [35]: 94.2%; viability, T/C [36]: 77.9%; viability, T/C (second compound 3.16 µM, first compound 0.000316 µM): 96.2%; viability, T/C (second compound 3.16 µM, first compound 0.001 µM): 105%; viability, T/C [37]: 92.9%; viability, T/C [38]: 86.5%; viability, T/C (second compound 10 µM, first compound 0.000316 µM): 107%; viability, T/C (second compound 10 µM, first compound 0.001 µM): 117%; viability, T/C [39]: 86.6%; viability, T/C [40]: 82.7%
3 | COc1cc(C2c3cc4c(cc3C(OC3OC5COC(C)OC5C(O)C3O)C3COC(=O)C23)OCO4)cc(OC)c1O (stereo not given) + Cc1ccccc1N=Nc1ccc(NC(=O)c2ccnn2C)c(C)c1 | > 10000 | 4100 | > 10000 | 7200 | > 10000 | 96.8 | 117 | 74.5 | 62.5 | 95.9 | 88.8 | 66.2 | 62.1 | 104 | 106 | 81 | 108 | 89.4 | 106 | 88.7 | viability, T/C [5]: 48.2%; viability, T/C [6]: 48.2%; viability, T/C [11]: 53.6%; viability, T/C [12]: 43.4%; viability, T/C [16]: 62.1%; viability, T/C [17]: 60.6%; viability, T/C [18]: 50.5%; viability, T/C [21]: 65.4%; viability, T/C [22]: 62.5%; viability, T/C [23]: 54.4%; viability, T/C [24]: 47.3%; viability, T/C [27]: 55%; viability, T/C [28]: 65.1%; viability, T/C [29]: 65.1%; viability, T/C [30]: 57.1%
4 | COc1cccc2c1C(=O)c1c(O)c3c(c(O)c1C2=O)CC(O)(C(=O)CO)CC3OC1CC(N)C(O)C(C)O1 (stereo not given) + Cc1ccccc1N=Nc1ccc(NC(=O)c2ccnn2C)c(C)c1 | 214 | 285 | 228 | 154 | 213 | 65.5 | 59.3 | 44 | 25.2 | 58.8 | 58.8 | 45.8 | 30.2 | 65.5 | 62.9 | 43 | 62.1 | 53.2 | 74.4 | 63.1 | viability, T/C [5]: 4.33%; viability, T/C [6]: 8.93%; viability, T/C [11]: 2.54%; viability, T/C [12]: 9.1%; viability, T/C [16]: 26.5%; viability, T/C [17]: 4.29%; viability, T/C [18]: 6.64%; viability, T/C [21]: 40.9%; viability, T/C [22]: 26.1%; viability, T/C [23]: 2.91%; viability, T/C [24]: 8.18%; viability, T/C [27]: 42.6%; viability, T/C [28]: 22.7%; viability, T/C [29]: 4.35%; viability, T/C [30]: 10.2%

The next lines start with results.

Row | IC50 (second compound 0.1 µM) [nM] | IC50 (second compound 0.316 µM) [nM] | IC50 (second compound 1 µM) [nM] | IC50 (second compound 3.16 µM) [nM] | IC50 (second compound 10 µM) [nM] | Structure (SMILES) | viability, T/C [1] [%] | viability, T/C [2] [%] | viability, T/C [3] [%] | viability, T/C [4] [%] | viability, T/C [7] [%] | viability, T/C [8] [%] | viability, T/C [9] [%] | viability, T/C [10] [%] | viability, T/C [13] [%] | viability, T/C [14] [%] | viability, T/C [15] [%] | viability, T/C [19] [%] | viability, T/C [20] [%] | viability, T/C [25] [%] | viability, T/C [26] [%] | further results
5 | 156 | 470 | 390 | 458 | 1740 | Nc1ccn(C2OC(CO)C(O)C2(F)F)c(=O)n1 (stereo not given) + Cc1ccccc1N=Nc1ccc(NC(=O)c2ccnn2C)c(C)c1 | 52.3 | 55.2 | 43.9 | 45.8 | 57.9 | 58.4 | 52.1 | 46.8 | 68.2 | 58.7 | 50.2 | 58.6 | 57.1 | 74.9 | 61.9 | viability, T/C [5]: 39.6%; viability, T/C [6]: 33.9%; viability, T/C [11]: 40.1%; viability, T/C [12]: 41.6%; viability, T/C [16]: 46.4%; viability, T/C [17]: 44.2%; viability, T/C [18]: 43.1%; viability, T/C [21]: 48.4%; viability, T/C [22]: 48.3%; viability, T/C [23]: 44.5%; viability, T/C [24]: 39.5%; viability, T/C [27]: 56.2%; viability, T/C [28]: 51.8%; viability, T/C [29]: 48.5%; viability, T/C [30]: 47.2%
6 | > 1000 | > 1000 | > 1000 | > 1000 | > 1000 | Nc1ncn(C2CC(O)C(CO)O2)c(=O)n1 (stereo not given) + Cc1ccccc1N=Nc1ccc(NC(=O)c2ccnn2C)c(C)c1 | 93.7 | 86.6 | 81.9 | 78.7 | 99.7 | 90.5 | 85.6 | 80.6 | 87.9 | 91.2 | 88.7 | 86.8 | 77.2 | 75.3 | 83.9 | viability, T/C [31]: 98.3%; viability, T/C [32]: 98.6%; viability, T/C [33]: 95.3%; viability, T/C [34]: 91.7%; viability, T/C [35]: 93.9%; viability, T/C [36]: 95.6%; viability, T/C [16]: 88.5%; viability, T/C [37]: 104%; viability, T/C [38]: 102%; viability, T/C [21]: 104%; viability, T/C [22]: 86.4%; viability, T/C [39]: 117%; viability, T/C [40]: 103%; viability, T/C [27]: 86.5%; viability, T/C [28]: 85.6%
